Source: patent US20230078265A1, “METHODS AND COMPOSITIONS FOR EDITING NUCLEOTIDE SEQUENCES” (The Broad Institute, Inc., priority 2019, published 2023)

How the values were obtained:
DNA = conditions: mutation relative to canonical SpCas9, SEQ ID NO: 18; cited from earlier work
[1] = system: 5′-Cy5-labeled dsDNA substrates; assay: In vitro TPRT (prime editing) primer extension assay, denaturing urea PAGE; type: biochemical; conditions: standard gRNA (gRNA_0, lane 3), substrates not pre-nicked
Method: All reactions are with M-MLV RT.
Fluorescently labeled (Cy5) DNA targets were used as substrates, and were pre-nicked in this set of experiments. […] Then, the fluorescently labeled DNA substrate was added along with dNTPs and the RT enzyme. After 1 hour of incubation at 37° C., the reaction products were analyzed by denaturing urea-polyacrylamide gel electrophoresis (PAGE).
However, the DNA substrates are not pre-nicked in this set of experiments. […] The reaction products were analyzed by denaturing urea-polyacrylamide gel electrophoresis (PAGE).
Reactions were incubated at 37° C. for 1 hour, then analyzed by denaturing urea PAGE and visualized for Cy5 fluorescence.
Reactions were allowed to proceed at 37° C. for 1 hour prior to separation by denaturing urea PAGE and visualization by Cy5 fluorescence.

Substance	Function/Characteristic (as reported) (DNA)	cleavage of the DNA strand by the nickase [1]
1099-1368 deletion: SpCas9 mutation relative to SEQ ID NO: 18	No nuclease activity	–
Cas9 nickase: Cas9 nickase (SpyCas9 H840A mutant)	–	efficiently cleaves
D10A: SpCas9 mutation relative to SEQ ID NO: 18	Nickase mutant which cleaves the protospacer	–
H840A: SpCas9 mutation relative to SEQ ID NO: 18	Nickase mutant which cleaves the non-protospacer	–
